Measurements as given in patent US20170105969A1, “CENICRIVIROC FOR THE TREATMENT OF HIV-2 INFECTION” (Tobira Therapeutics, Inc., priority 2014, published 2017).
Entries after “also recorded” stand apart in the source; their conditions may differ.

Experiments:
CCR5-tropic HIV-1 BaL = experiment: PM-1 cells infected with HIV-1 BaL, supernatant P24 and viral load after 4 hours; assay type: cell-based; settings: CVC 20 nM or MVC 50 nM
Procedure: (§1) Early (strong-stop) and late (full-length) reverse transcript levels were measured by qPCR. […] P24 and viral load levels were measured by ELISA and qRT-PCR after 4 hours.

HIV-2 clinical isolates = experiment: HIV-2 phenotypic susceptibility, ANRS PBMC method; assay type: cell-based; settings: for EC50: Human immunodeficiency virus 2, PBMC
Procedure: All patients were infected with HIV-2 group A. Tropism was determined phenotypically using Ghost(3) cell lines expressing CD4 receptor and one HIV coreceptor, CCR5 or CXCR4. Both Ghost(3) cell lines carries a humanized green fluorescent protein (GFP) gene, under the control of a HIV-2 LTR. […] Ghost(3) cells were provided by the NIH AIDS Reagent program.
Briefly, cell-free HIV-2 positive supernatant was serially diluted (1, 10^−1, and 10^−2) and incubated with PBMC for viral titration. Viruses were tested at a 100 TCID50 titration. Cells were pre-incubated with cenicriviroc or maraviroc at an appropriate concentration 1 hour before viral infection. Six serial dilutions of the antiretroviral drug were tested in quadruplicate. On day 4, viral replication was assessed by a specific viral load assay (Generic HIV-2 viral load, Biocentric, France).

CCR7 = target: T1, CCR7 (Homo sapiens, UniProt P32248); experiment: Ligand binding to CCR7
T1 sequence (P32248 25-378): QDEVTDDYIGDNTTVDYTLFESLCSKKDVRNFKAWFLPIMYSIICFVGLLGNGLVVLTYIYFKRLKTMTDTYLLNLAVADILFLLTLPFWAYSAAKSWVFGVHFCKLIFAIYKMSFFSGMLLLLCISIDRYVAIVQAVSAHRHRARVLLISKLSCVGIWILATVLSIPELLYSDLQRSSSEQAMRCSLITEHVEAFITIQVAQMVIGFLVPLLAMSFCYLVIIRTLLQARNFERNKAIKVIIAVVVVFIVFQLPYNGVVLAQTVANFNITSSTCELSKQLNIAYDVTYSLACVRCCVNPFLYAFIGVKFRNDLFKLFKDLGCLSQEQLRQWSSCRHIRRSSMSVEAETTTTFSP

HIV = experiment: Ex vivo intracellular HIV DNA (qPCR) in PBMCs of Study 202 subjects; settings: Week 24
Procedure: as §1

CCR5 = CCR5 (Homo sapiens, UniProt P51681); experiment: CCR5 receptor occupancy / internalization in PBMCs by flow cytometry; assay type: cell-based
Procedure: (§2) The capacity of each drug to inhibit CCR5 or CCR2 internalization was evaluated. Cell-surface expression of CCR5 and CCR2 was assessed by flow cytometry, and fluorescence values were converted into molecules of equivalent soluble fluorescence (MESF).

[1] = Study 201: safety and tolerability (adverse events); assay type: in vivo, human
Procedure: Subjects were antiretroviral treatment experienced, CCR5 antagonist-naïve, with HIV-1 RNA levels of at least 5000 copies/mL and CD4+ cell counts of at least 250 cells/mm^3. Subjects with HIV-2, hepatitis B virus, or hepatitis C virus co-infection or dual/mixed-tropic HIV-1 were ineligible. Other than their HIV-1 infection, subjects were generally healthy.
In this study, all dose groups received the original formulation (DP3_25), except the 100 mg dose group which received an alternative formulation (DP4_100). […] These subjects were excluded from the efficacy, PK, and PK/PD data, but included in the baseline and safety data. In this study, safety and tolerability were assessed by monitoring AEs, vital signs, ECGs, clinical laboratory values from blood and urine, and physical examinations. Data from all subjects on placebo were pooled for the analyses.

CCR2 = target: T2, CCR2 (Homo sapiens, UniProt P41597); experiment: CCR2 receptor occupancy / internalization in PBMCs (monocytes) by flow cytometry; assay type: cell-based
T2 construct: endogenous in cells; host or cells: monocytes within PBMCs from 5 HIV+ and 5 HIV- subjects
T2 sequence (P41597 1-360 isoform P41597-2): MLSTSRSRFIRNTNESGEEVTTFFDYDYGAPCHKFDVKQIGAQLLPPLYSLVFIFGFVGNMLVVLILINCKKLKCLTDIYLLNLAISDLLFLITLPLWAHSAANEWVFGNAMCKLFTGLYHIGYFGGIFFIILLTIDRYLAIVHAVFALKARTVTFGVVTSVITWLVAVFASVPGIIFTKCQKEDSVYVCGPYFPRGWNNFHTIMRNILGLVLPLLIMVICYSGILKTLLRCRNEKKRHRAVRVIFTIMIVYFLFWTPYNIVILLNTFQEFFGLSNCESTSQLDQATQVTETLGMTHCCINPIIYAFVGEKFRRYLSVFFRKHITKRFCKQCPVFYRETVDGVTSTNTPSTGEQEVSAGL
Procedure: as §2

CCR1 = target: T3, CCR1 (Homo sapiens, UniProt P32246); experiment: Ligand binding to CCR1
T3 sequence (P32246 1-355): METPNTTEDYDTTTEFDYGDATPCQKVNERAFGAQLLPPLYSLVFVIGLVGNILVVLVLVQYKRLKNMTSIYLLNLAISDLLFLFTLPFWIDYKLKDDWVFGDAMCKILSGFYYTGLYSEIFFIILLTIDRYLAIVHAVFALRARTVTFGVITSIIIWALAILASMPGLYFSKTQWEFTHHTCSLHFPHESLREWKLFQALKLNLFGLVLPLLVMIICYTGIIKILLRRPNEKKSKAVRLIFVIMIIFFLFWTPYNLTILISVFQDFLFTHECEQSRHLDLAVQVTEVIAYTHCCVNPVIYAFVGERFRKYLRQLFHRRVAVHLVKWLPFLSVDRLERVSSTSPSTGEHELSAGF

[2] = HIV-2 isolate 10-046, group A, R5
[3] = HIV-2 isolate 10-051, group A, R5
[4] = HIV-2 isolate 10-055, group A, X4
[5] = HIV-2 isolate 10-056, group A, R5
[6] = HIV-2 isolate 10-069, group A, Dual
[7] = HIV-2 isolate 10-074, group A, R5
[8] = among subjects on CVC presenting with a AE (n=30)

Sequence of CCR5 (P51681 whole entry): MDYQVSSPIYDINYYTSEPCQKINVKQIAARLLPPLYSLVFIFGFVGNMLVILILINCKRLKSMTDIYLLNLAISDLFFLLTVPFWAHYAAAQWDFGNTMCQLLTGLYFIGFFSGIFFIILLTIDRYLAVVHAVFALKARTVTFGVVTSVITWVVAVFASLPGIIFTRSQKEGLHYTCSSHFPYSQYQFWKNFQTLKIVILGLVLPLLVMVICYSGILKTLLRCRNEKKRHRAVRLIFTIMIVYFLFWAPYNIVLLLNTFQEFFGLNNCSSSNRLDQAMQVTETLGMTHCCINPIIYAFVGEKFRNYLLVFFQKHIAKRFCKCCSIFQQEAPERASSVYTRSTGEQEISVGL

## CCCCOCCOc1ccc(-c2ccc3c(c2)/C=C(/C(=O)Nc2ccc([S@@+]([O-])Cc4cncn4CCC)cc2)CCCN3CC(C)C)cc1 [CVC, (S)-8-[4-(2-Butoxyethoxy)phenyl]-1-isobutyl-N-(4-{[(1-propyl-1H-imidazol-5-yl)methyl]sulfinyl}phenyl)-1,2,3,4-tetrahydro-1-benzazocine-5-carboxamide]
CCR5-tropic HIV-1 BaL; 0 hrs (baseline)
  supernatant P24: 506 ng/mL
CCR5-tropic HIV-1 BaL; 0 hrs
  viral load: 1.19×10^10 copies/ml
CCR5-tropic HIV-1 BaL; 4 hrs
  supernatant P24: 192 ng/mL
  viral load: 1.26×10^10 copies/ml
HIV-2 clinical isolates; [2]
  MPI (%): 94%
  EC50: 0.03 nM
HIV-2 clinical isolates; [3]
  MPI (%): 93%
  EC50: 0.45 nM
HIV-2 clinical isolates; [4]
  MPI (%): 4%
  EC50: > 1000 nM
HIV-2 clinical isolates; [5]
  MPI (%): 94%
  EC50: 0.33 nM
HIV-2 clinical isolates; [6]
  MPI (%): 33%
  EC50: > 1000 nM
HIV-2 clinical isolates; [7]
  MPI (%): 98%
  EC50: 0.98 nM
CCR7
  inhibition of ligand binding (in words): did not inhibit
HIV; CVC 100 mg arm
  Strong-stop HIV DNA decline (marker of HIV entry): 51%
HIV; CVC 200 mg arm
  Strong-stop HIV DNA decline (marker of HIV entry): 37%
CCR5; CD4+ T cells
  effective concentration at which saturation of CCR5 was reached: 3.1 nM
CCR5; CD4+ T-cells ex vivo in humans
  concentration achieving ≧90% receptor occupancy for CCR5: 3.1 nM
CCR5; CD8+ T cells
  effective concentration at which saturation of CCR5 was reached: 2.3 nM
CCR5; CD8+ T-cells ex vivo in humans
  concentration achieving ≧90% receptor occupancy for CCR5: 2.3 nM
CCR5; PBMCs
  prevention of RANTES-induced CCR5 internalization (in words): at lower effective concentrations than MVC
CCR5; in the absence of RANTES, PBMCs
  cell-surface expression of CCR5 (in words): increased cell-surface expression of CCR5
[1]
  treatment-emergent AE: diarrhea: 16.7%
  treatment-emergent AE: fatigue: 11.0%
  treatment-emergent AE: headache: 14.8%
  treatment-emergent AE: nausea: 18.5%
[1]; [8]
  subjects with mild AEs: 80%
  subjects with moderate AEs: 17%
[1]; doses between 25 mg and 150 mg
  tolerability (in words): generally well tolerated
CCR2; CCR2, monocytes
  average concentration required to reach >80% receptor occupancy: 1.8 nM
CCR2; PBMCs
  prevention of MCP-1-induced CCR2 internalization (in words): at lower concentrations than BMS-22
CCR2; in the absence of MCP-1, monocytes
  CCR2 cell-surface expression (in words): induced CCR2 internalization and decreased cell-surface expression on monocytes; also recorded: reduced CCR2 expression on monocytes
CCR2; monocytes
  concentration at which saturation of monocyte CCR2 was reached: 6 nM
CCR2; monocytes, at 6 nM (saturation)
  receptor occupancy at 0.006 µM: ~98%
CCR1
  inhibition of ligand binding (in words): did not inhibit
